Values after ≈ are worked out from the molar mass of the structure shown.
Legend:
[1] = cited from earlier work
[2] = Release of SF/Saf microcapsules, released Saf by UV-Vis; format: physicochemical; conditions: without silk encapsulation; 10% Pluronic PE 10500 aqueous suspension; FIG. 5C
Experimental: Release of SF/Saf microcapsules: around 5 mg of different SF/Saf microcapsules were dispersed in 50 mL of 10% Pluronic PE 10500 aqueous suspension, wrapped in Al foil and under 20 rpm mind shaking. After certain time intervals, 0.75 mL of suspension was taken for UV-Vis measurement to determine the concentration of released Saf. The characteristic UV absorption peak position of Saf is around 271 nm.
All release and degradation tests were run in triplicates, and the standard errors for the analytical results were used to generate and present error bars.
The surface morphologies of microcapsules structures were investigated using a Zeiss Merlin High-resolution SEM operating at 0.8 kV for low-, medium- and high-resolution imaging. The elemental analysis was carried out on Zeiss Merlin SEM with energy-dispersive X-ray spectroscopy (EDS). Optical images of SF/DA emulsions were taken with a Nikon Eclipse TE2000-E optical microscope. The concentrations of released VC and Saf were determined by ultraviolet-visible (UV-Vis) spectroscopy on a VWR UV-1600PC spectrophotometer. Chemical structures of SF were studied with Fourier transform infrared (FTIR) spectroscopy from a Perkin Elmer Spectrum 65 spectrometer with the attenuated total reflection (ATR) accessory. […] The data was analyzed on volume-based distribution.

CC(C)N(C)S(=O)(=O)NC(=O)c1cc(-n2c(=O)cc(C(F)(F)F)n(C)c2=O)c(F)cc1Cl [Saf, Saflufenacil]
solubility in organic solvents ([1]; organic solvents): limited | thermal decomposition T ([1]; solid powder): around 236 °C | solubility in water ([1]; water): 2000 µg/mL (≈ 3.99 mM) | burst release of Saf [2]: ~25%

From patent US20260257186A1, “Tunable Structure of Biodegradable Silk-Based Microcapsules for Soluble and Insoluble Payload Delivery” (MASSACHUSETTS INSTITUTE OF TECHNOLOGY, priority 2021, published 2026)
